Laboratory results as given in paper PMC6372683, “Mechanism of the natural product moracin-O derived MO-460 and its targeting protein hnRNPA2B1 on HIF-1α inhibition” (Experimental & Molecular Medicine, 2019).
Where “and” joins values, the source holds several entries; their conditions need not be identical. Equal values may be shown once. Entries after “also recorded” stand apart in the source; their conditions may differ.

Columns and labels:
[1] = system: HIF-1α translation in presence of hnRNPA2B1; experiment: In vitro transcription/translation assay of HIF-1α; format: biochemical, human; details: purified hnRNPA2B1 protein added
Method: HIF-1α proteins were synthesized using in vitro transcription/translation systems (Promega, Madison, WI), the protocol was followed the manufacturer’s instructions. In brief, mixtures containing reaction components were incubated at 30 °C for 60 min, and then analyzed by Western blotting using HIF-1α. The template was used HIF-1α plasmid DNA containing untranslated region (Korea human gene bank, Daejeon, Rep. of Korea), and full-length recombinant hnRNPA2B1 and MO-460 were added to the mixture.

HIF-1α protein = target: T1, HIF-1α protein (Homo sapiens, UniProt Q16665); experiment: Affinity capture with Biotin-MO-460 followed by LC/MS; format: binding; details: two rounds of the affinity capture experiment
T1 construct: endogenous in cells; host or cells: Hep3B (cytosolic and nuclear lysates, CoCl2-treated)
T1 sequence (Q16665 whole entry): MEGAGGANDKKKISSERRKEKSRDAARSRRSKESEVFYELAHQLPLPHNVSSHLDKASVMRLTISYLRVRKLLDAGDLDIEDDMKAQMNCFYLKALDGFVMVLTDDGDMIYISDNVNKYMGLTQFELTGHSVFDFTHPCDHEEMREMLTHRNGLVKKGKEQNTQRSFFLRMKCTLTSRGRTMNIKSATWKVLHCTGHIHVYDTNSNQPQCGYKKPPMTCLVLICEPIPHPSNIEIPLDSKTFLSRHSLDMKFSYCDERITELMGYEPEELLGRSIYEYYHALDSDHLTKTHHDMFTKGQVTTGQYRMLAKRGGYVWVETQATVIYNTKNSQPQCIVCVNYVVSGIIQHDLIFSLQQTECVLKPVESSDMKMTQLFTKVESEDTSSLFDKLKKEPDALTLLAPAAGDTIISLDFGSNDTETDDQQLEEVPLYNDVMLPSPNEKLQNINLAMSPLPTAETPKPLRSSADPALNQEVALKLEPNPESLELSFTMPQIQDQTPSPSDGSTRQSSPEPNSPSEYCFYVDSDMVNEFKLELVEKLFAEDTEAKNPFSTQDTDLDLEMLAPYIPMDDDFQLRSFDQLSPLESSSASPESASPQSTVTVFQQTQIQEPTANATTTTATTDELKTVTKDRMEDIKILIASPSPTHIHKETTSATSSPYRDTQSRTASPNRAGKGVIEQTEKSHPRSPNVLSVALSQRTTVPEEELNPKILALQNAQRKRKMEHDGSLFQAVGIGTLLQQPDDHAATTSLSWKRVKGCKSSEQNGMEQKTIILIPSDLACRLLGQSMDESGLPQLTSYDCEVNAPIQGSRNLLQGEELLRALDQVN
Method: We synthesized biotinylated MO-460 using a recently reported method. Fractionation and enrichment of cytosol and nuclei were performed as described previously. Briefly, Hep3B (Human hepatocyte cancer cell line) was harvested and washed twice with PBS after treatment with 200 μM of CoCl2 for 24 h, and then resuspended in lysis buffer [10 mM HEPES pH 7.9, 10 mM KCl, 0.1 mM EGTA, 0.1 mM EDTA, 0.5 mM PMSF, 0.025% 2-Mercaptoethanol, 1.6% NP-40, and protease inhibitor cocktail]. After cell lysis and homogenization by vortexing for 10 s, the insoluble material was removed by centrifugation. The supernatant was collected as a cytosol-enriched lysate. The pellet was resuspended in nuclear extract buffer [20 mM HEPES pH 7.9, 400 mM NaCl, 1 mM EGTA, 1 mM EDTA, 1 mM DTT, 1 mM PMSF, protease inhibitor cocktail]. The pellet was then vortexed vigorously at 4 °C to separate the insoluble material. After the cytosol-enriched lysate (97.9 μg of protein) and the nuclei-enriched lysate (67.5 μg of protein) were precleared by incubation with NeutrAvidine^TM agarose-resins (Thermo Scientific) that were conjugated with biotin-linker (cytosol fraction: 600 μM, nuclear fraction: 1200 μM) for 12 h at 4 °C, the cleared cell lysate was incubated with NeutrAvidine^TM agarose-resins bound -Biotin-MO-460 (cytosol fraction: 200 μM, nuclear fraction: 400 μM) for 16 h at 4 °C, respectively. […]

[2] = system: HIF-1α mRNA in Hep3B cells; experiment: HIF-1α mRNA level by qRT-PCR / RT-PCR; format: cell-based, human
Method: Cells were lysed with TRIzol (Invitrogen) and proteins were extracted with chloroform. RNAs were precipitated with isopropanol and washed with 75% ethanol diluted with DEPC-treated water. Purity and concentration of RNA was analyzed using nano drop. The cDNA was synthesized from total RNA in a reaction mixture containing 5 × reaction buffer (250 mM Tris-HCl pH 8.3, 375 mM KCl, 15 mM MgCl2, 50 mM DTT), 50 μg/mL Oligo-dT, 10 mM dNTP, and 50,000 U M-MLV reverse transcriptase (Promega, Madison, WI). Amplified PCR products obtained with β actin-specific primers served as internal controls. The sequences of the primers used for this study are listed in Supplementary Materials and Methods 5 and 6.

CC(C)(O)[C@H]1Cc2cc3cc(-c4ccc(O)cc4)oc3cc2O1 [MO-460, (R)-4-[6-(1-Hydroxy-1-methylethyl)-5,6-dihydro-benzo[1,2-b;5,4-b’]difuran-2-yl]-phenol]
effect on hnRNPA2B1-enhanced HIF-1α translation [1]: attenuated this effect
binding to HIF-1α protein (HIF-1α protein): did not bind to HIF-1α protein
reduction in HIF-1α mRNA level ([2]; 50 µM, mimetic hypoxia, qRT-PCR): ~ 10% and < 10%
effect on HIF-1α transcript level ([2]; normoxic condition): no observed effect; also recorded: did not affect HIF-1α transcript levels
